According to US20260070945A1, “MACROCYCLIC IMMUNOMODULATORS” (Bristol-Myers Squibb Company, priority 2022, published 2026):
*1 amine or outer side, *2 acyl side, *3 side chain or, on linkers, in order; H or OH if unused. Where a SMILES comes first, the peptide text is derived from it. Bridges are numbered along the chain shown (N, C = ends). [ ]: non-standard residue; d: D form. The star is where a group is joined. ξ: configuration not given here. Phe(4-guanidino) = N=C(N)Nc1ccc(C[C@H](N)C(=O)O)cc1; X7 = NC[C@H](NC(=O)CNCCNCCN*)C(=O)NCCCCCCCCCCC(=O)O; Phe(4-CONH2) = NC(=O)c1ccc(C[C@H](N)C(=O)O)cc1; Phe(4-COOH) = N[C@@H](Cc1ccc(C(=O)O)cc1)C(=O)O; Bip = N[C@@H](Cc1ccc(-c2ccccc2)cc1)C(=O)O; Phe(3-Me) = Cc1cccc(C[C@H](N)C(=O)O)c1; NH(CH2)8CO = O=C(CCCCCCCCN[*:1])[*:2]; Val(3-OH) = CC(C)(O)[C@H](N)C(=O)O; hArg = N=C(N)NCCCC[C@H](N)C(=O)O; hPhe = N[C@@H](CCc1ccccc1)C(=O)O; 4Pal = N[C@@H](Cc1ccncc1)C(=O)O; Cha = N[C@@H](CC1CCCCC1)C(=O)O; Ile(3ξ) = CCC(C)[C@H](N)C(=O)O; 12Ado = NCCCCCCCCCCCC(=O)O; Carboxymethyl = O=C(O)C*; NMeA = CN[C@@H](C)C(=O)O; Orn = NCCC[C@H](N)C(=O)O; Aun = NCCCCCCCCCCC(=O)O; Dab = NCC[C@H](N)C(=O)O; Abu = CC[C@H](N)C(=O)O; Dap = NC[C@H](N)C(=O)O; AEEA = NCCOCCOCC(=O)O; Sar = CNCC(=O)O

Molecular target: T1, PD-1/PD-L1 interaction (PE-labeled human PD-L1-Ig binding to Jurkat cell line over-expressing human PD-1) (Homo sapiens, UniProt Q15116)
T1 construct: expressed in transfected cells; host or cells: Jurkat
T1 sequence (Q15116 25-288): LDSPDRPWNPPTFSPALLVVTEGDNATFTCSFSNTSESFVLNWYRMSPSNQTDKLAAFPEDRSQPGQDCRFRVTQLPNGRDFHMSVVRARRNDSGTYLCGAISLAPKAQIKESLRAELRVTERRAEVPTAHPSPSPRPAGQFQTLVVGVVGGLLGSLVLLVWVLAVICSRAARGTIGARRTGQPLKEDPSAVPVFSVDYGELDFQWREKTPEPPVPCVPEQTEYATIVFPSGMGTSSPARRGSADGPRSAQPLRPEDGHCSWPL
Experiment: Jurkat-PD-1 Cell Binding High-Content Screening Assay (CBA)
Conditions: Jurkat-hPD-1 cells, PE-labeled PD-L1-Ig 20 nM final; read-out: Jurkat HPD1 PDL1 IC50
Method in brief: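 Read-out: high-content imaging of cell-bound PE fluorescence, with Hoechst 33342 nuclear counterstain after paraformaldehyde fixation. Before labeled ligand (20 nM final, 1 h) was added, compound sat on the cells for 2 h at 37 °C in DMEM/10% FCS.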

Row | Structure (SMILES) | IC50 [nM]
1 | Cc1cccc(C[C@@H]2NC(=O)[C@H](CC(=O)O)NC(=O)[C@H](Cc3ccc(OCC(=O)O)cc3)NC(=O)[C@H]([C@@H](C)O)NC(=O)CSC[C@@H](C(=O)N[C@@H](CCN)C(=O)NCCCCCCCCCCC(=O)O)NC(=O)[C@H](CCC(=O)O)NC(=O)[C@H](C(C)(C)O)NC(=O)[C@H](CC3CCCCC3)NC(=O)[C@H](CCN)NC(=O)[C@@H](CC(C)C)NC(=O)[C@H](C)N(C)C(=O)[C@H](Cc3ccc(OCC(=O)O)cc3)NC(=O)[C@H](Cc3ccc(-c4ccccc4)cc3)NC(=O)[C@H](Cc3ccc(OCC(=O)O)cc3)NC2=O)c1 [Example 1418] ({CH2CO}-TY(Carboxymethyl)D[Phe(3-Me)]Y(Carboxymethyl)[Bip]Y(Carboxymethyl)[NMeA][dL][Dab][Cha][Val(3-OH)]EC[Dab][Aun]-OH; thioether N-14) | 37.1
2 | CC(C)C[C@@H]1NC(=O)[C@H](Cc2c[nH]c3ccccc23)NC(=O)[C@H](CC(=O)O)NC(=O)[C@H](Cc2ccc(OCC(=O)O)cc2)NC(=O)[C@H](Cc2ccccc2)NC(=O)CSC[C@@H](C(=O)N[C@@H](CCN)C(=O)NCCCCCCCCCCC(=O)O)NC(=O)[C@H](CCC(N)=O)NC(=O)[C@H](C(C)C)NC(=O)[C@H](CC(C)C)NC(=O)[C@H](CC(N)=O)NC(=O)[C@@H](CC(C)C)NC(=O)[C@H](C)N(C)C(=O)[C@H](C(C)C)NC(=O)[C@H](Cc2ccc(-c3ccccc3)cc2)NC1=O [Example 1346] ({CH2CO}-FY(Carboxymethyl)DWL[Bip]V[NMeA][dL]NLVQC[Dab][Aun]-OH; thioether N-14) | 113
3 | CCC(C)[C@@H]1NC(=O)[C@H](Cc2ccc(-c3ccccc3)cc2)NC(=O)[C@H](CC(C)C)NC(=O)[C@H](Cc2c[nH]c3ccccc23)NC(=O)[C@H](CC(=O)O)NC(=O)[C@H](Cc2ccc(C(=O)O)cc2)NC(=O)[C@H](Cc2ccc(OCC(=O)O)cc2)NC(=O)CSC[C@@H](C(=O)N[C@@H](CC(N)=O)C(=O)NCCOCCOCC(=O)N[C@@H](CN)C(=O)NCCCCCCCCCCC(=O)O)NC(=O)[C@H](CO)NC(=O)[C@H](C(C)C)NC(=O)[C@H](CC2CCCCC2)NC(=O)[C@H](CCN)NC(=O)[C@@H](CC(C)C)NC(=O)[C@H](C)N(C)C1=O (stereo partly drawn) [Example 2075] ({CH2CO}-Y(Carboxymethyl)[Phe(4-COOH)]DWL[Bip][Ile(3ξ)][NMeA][dL][Dab][Cha]VSCN[AEEA][Dap][Aun]-OH; thioether N-14) | 15.5
4 | Cc1cccc(C[C@@H]2NC(=O)[C@H](CC(=O)O)NC(=O)[C@H](Cc3ccc(OCC(=O)O)cc3)NC(=O)[C@H](CC(N)=O)NC(=O)CSC[C@@H](C(=O)N(C)CC(=O)NCCCCCCCCCCC(=O)O)NC(=O)[C@H](CCC(=O)O)NC(=O)[C@H](C(C)C)NC(=O)[C@H](CC3CCCCC3)NC(=O)[C@H](CCN)NC(=O)[C@@H](CC(C)C)NC(=O)[C@H](C)N(C)C(=O)[C@H](C(C)C)NC(=O)[C@H](Cc3ccc(-c4ccccc4)cc3)NC(=O)[C@H](Cc3ccc(O)cc3)NC2=O)c1 [Example 2266] ({CH2CO}-NY(Carboxymethyl)D[Phe(3-Me)]Y[Bip]V[NMeA][dL][Dab][Cha]VEC[Sar][Aun]-OH; thioether N-14) | 334
5 | CC[C@@H]1NC(=O)[C@H](C(C)C)NC(=O)[C@H](CC2CCCCC2)NC(=O)[C@H](CCN)NC(=O)[C@@H](CC(C)C)NC(=O)[C@H](C)N(C)C(=O)[C@H](C(C)C)NC(=O)[C@H](Cc2ccc(-c3ccccc3)cc2)NC(=O)[C@H](CC(C)C)NC(=O)[C@H](Cc2c[nH]c3ccccc23)NC(=O)[C@H](CC(=O)O)NC(=O)[C@H](Cc2ccc(OCC(=O)O)cc2)NC(=O)[C@H](CCCCNC(=N)N)NC(=O)CSC[C@@H](C(=O)NCC(=O)NCCOCCOCC(=O)N[C@@H](CCCN)C(=O)NCCCCCCCCCCCC(=O)O)NC1=O [Example 2124] ({CH2CO}-[hArg]Y(Carboxymethyl)DWL[Bip]V[NMeA][dL][Dab][Cha]V[Abu]CG[AEEA][Orn][12Ado]-OH; thioether N-14) | 17
6 | Cc1cccc(C[C@@H]2NC(=O)[C@H](CC(=O)O)NC(=O)[C@H](Cc3ccc(OCC(=O)O)cc3)NC(=O)[C@H](CN)NC(=O)CSC[C@@H](C(=O)NCCNCCNCC(=O)N[C@@H](CN)C(=O)NCCCCCCCCCCC(=O)O)NC(=O)[C@H](CO)NC(=O)[C@H](C(C)C)NC(=O)[C@H](CC(C)C)NC(=O)[C@H](CC(N)=O)NC(=O)[C@@H](CC(C)C)NC(=O)[C@H](C)N(C)C(=O)[C@H](C(C)C)NC(=O)[C@H](Cc3ccc(-c4ccccc4)cc3)NC(=O)[C@H](CC(C)C)NC2=O)c1 [Example 1062] ({CH2CO}-[Dap]Y(Carboxymethyl)D[Phe(3-Me)]L[Bip]V[NMeA][dL]NLVSC-X7; thioether N-14) | 26.9
7 | CC(C)C[C@H]1NC(=O)[C@H](C)N(C)C(=O)[C@H](Cc2ccc(OCC(=O)O)cc2)NC(=O)[C@H](Cc2ccc(-c3ccccc3)cc2)NC(=O)[C@H](Cc2ccc(OCC(=O)O)cc2)NC(=O)[C@H](Cc2c[nH]c3ccccc23)NC(=O)[C@H](CC(=O)O)NC(=O)[C@H](Cc2ccncc2)NC(=O)[C@H](Cc2ccc(OCC(=O)O)cc2)NC(=O)CSC[C@@H](C(=O)N[C@@H](CCCN)C(=O)NCCOCCOCC(=O)NCCCCCCCCCCC(=O)O)NC(=O)[C@H]([C@@H](C)O)NC(=O)[C@H](C(C)C)NC(=O)[C@H](CC2CCCCC2)NC(=O)[C@H](CCN)NC1=O [Example 1382] ({CH2CO}-Y(Carboxymethyl)[4Pal]DWY(Carboxymethyl)[Bip]Y(Carboxymethyl)[NMeA][dL][Dab][Cha]VTC[Orn][AEEA][Aun]-OH; thioether N-14) | 110

Other lines, results leading:

Row | IC50 [nM] | Structure (SMILES)
8 | 10.4 | Cc1cccc(C[C@@H]2NC(=O)[C@H](CC(=O)O)NC(=O)[C@H](Cc3ccc(OCC(=O)O)cc3)NC(=O)[C@H](CN)NC(=O)CSC[C@@H](C(=O)N[C@@H](CCN)C(=O)NCCCCCCCCCCC(=O)O)NC(=O)[C@H]([C@@H](C)O)NC(=O)[C@H](C(C)C)NC(=O)[C@H](CC3CCCCC3)NC(=O)[C@H](CCN)NC(=O)[C@@H](CC(C)C)NC(=O)[C@H](C)N(C)C(=O)[C@H](Cc3ccc(OCC(=O)O)cc3)NC(=O)[C@H](Cc3ccc(-c4ccccc4)cc3)NC(=O)[C@H](C(C)C)NC2=O)c1 [Example 1260] ({CH2CO}-[Dap]Y(Carboxymethyl)D[Phe(3-Me)]V[Bip]Y(Carboxymethyl)[NMeA][dL][Dab][Cha]VTC[Dab][Aun]-OH; thioether N-14)
9 | 142 | Cc1cccc(C[C@@H]2NC(=O)[C@H](CC(=O)O)NC(=O)[C@H](Cc3ccc(OCC(=O)O)cc3)NC(=O)[C@H](CCc3ccccc3)NC(=O)CSC[C@@H](C(=O)N[C@@H](CCN)C(=O)NCCCCCCCCCCC(=O)O)NC(=O)[C@H](CO)NC(=O)[C@H](C(C)C)NC(=O)[C@H](CC3CCCCC3)NC(=O)[C@H](CCN)NC(=O)[C@@H](CC(C)C)NC(=O)[C@H](C)N(C)C(=O)[C@H](Cc3ccc(O)cc3)NC(=O)[C@H](Cc3ccc(-c4ccccc4)cc3)NC(=O)[C@H](Cc3ccc(OCC(=O)O)cc3)NC2=O)c1 [Example 1276] ({CH2CO}-[hPhe]Y(Carboxymethyl)D[Phe(3-Me)]Y(Carboxymethyl)[Bip]Y[NMeA][dL][Dab][Cha]VSC[Dab][Aun]-OH; thioether N-14)

Same assay, conditions: PE-labeled PD-L1-Ig 20 nM final, Jurkat-hPD-1 cells; read-out: Jurkat HPD1 PDL1 IC50

Row | IC50 [nM] | Structure (SMILES)
10 | 1.4 | CC(=O)NCCCC[C@@H]1NC(=O)[C@H](C(C)(C)O)NC(=O)[C@H](CC2CCCCC2)NC(=O)[C@H](CCN)NC(=O)[C@@H](CC(C)C)NC(=O)[C@H](C)N(C)C(=O)[C@H](CCC(=O)O)NC(=O)[C@H](Cc2ccc(-c3ccccc3)cc2)NC(=O)[C@H](Cc2ccc(C(N)=O)cc2)NC(=O)[C@H](Cc2cccc(C)c2)NC(=O)[C@H](CC(=O)O)NC(=O)[C@H](Cc2ccc(OCC(=O)O)cc2)NC(=O)[C@H](Cc2ccc(OCC(=O)O)cc2)NC(=O)CSC[C@@H](C(=O)N[C@@H](CCN)C(=O)NCCOCCOCC(=O)NCCCCCCCCCCC(=O)O)NC1=O [Example 2532] ({CH2CO}-Y(Carboxymethyl)Y(Carboxymethyl)D[Phe(3-Me)][Phe(4-CONH2)][Bip]E[NMeA][dL][Dab][Cha][Val(3-OH)]K(Ac)C[Dab][AEEA][Aun]-OH; thioether N-14)
11 | 4.4 | Cc1cccc(C[C@@H]2NC(=O)[C@H](CC(=O)O)NC(=O)[C@H](Cc3ccc(NC(=N)N)cc3)NC(=O)[C@H]([C@@H](C)O)NC(=O)CSC[C@@H](C(=O)N[C@@H](CCN)C(=O)NCCCCCCCCC(=O)NCCCCCCCCCCC(=O)O)NC(=O)[C@H](CCCN)NC(=O)[C@H](C(C)C)NC(=O)[C@H](CC3CCCCC3)NC(=O)[C@H](CCN)NC(=O)[C@@H](CC(C)C)NC(=O)[C@H](C)N(C)C(=O)[C@H](Cc3ccc(NC(=N)N)cc3)NC(=O)[C@H](Cc3ccc(-c4ccccc4)cc3)NC(=O)[C@H](Cc3ccc(NC(=N)N)cc3)NC2=O)c1 [Example 2684] ({CH2CO}-T[Phe(4-guanidino)]D[Phe(3-Me)][Phe(4-guanidino)][Bip][Phe(4-guanidino)][NMeA][dL][Dab][Cha]V[Orn]C[Dab][NH(CH2)8CO][Aun]-OH; thioether N-14)
12 | 11.7 | Cc1cccc(C[C@@H]2NC(=O)[C@H](CC(=O)O)NC(=O)[C@H](Cc3ccc(C(=O)O)cc3)NC(=O)[C@H](CCN)NC(=O)CSC[C@@H](C(=O)N[C@@H](CCN)C(=O)NCCOCCOCC(=O)NCCCCCCCCCCC(=O)O)NC(=O)[C@H](CCC(=O)O)NC(=O)[C@H](C(C)C)NC(=O)[C@H](CC3CCCCC3)NC(=O)[C@H](CCN)NC(=O)[C@@H](CC(C)C)NC(=O)[C@H](C)N(C)C(=O)[C@H](Cc3ccc(C(=O)O)cc3)NC(=O)[C@H](Cc3ccc(-c4ccccc4)cc3)NC(=O)[C@H](Cc3ccc(C(=O)O)cc3)NC2=O)c1 [Example 2546] ({CH2CO}-[Dab][Phe(4-COOH)]D[Phe(3-Me)][Phe(4-COOH)][Bip][Phe(4-COOH)][NMeA][dL][Dab][Cha]VEC[Dab][AEEA][Aun]-OH; thioether N-14)
